{
  "source": "patent US20240058315A1",
  "about": "“Pyridine and Pyrazine derivative for the Treatment of CF, COPD, and Bronchiectasis” (NOVARTIS AG, priority 2019, published 2024)",
  "key": {"Haemophilus influenzae": {"system": "Haemophilus influenzae", "experiment": "Phase II study in COPD patients: sputum microbiology, Haemophilus influenzae", "assay_type": "in vivo", "procedure": "(§1) Patients were randomized and stratified by smoking status (former vs current smokers). The double-blind placebo-controlled treatment period was 28 days (Day 1 to Day 28) and included visits on Days 1, 14 and 28. Eligible patients were randomized in a 2:1 ratio to receive 300 mg b.i.d. of Compound A or matching placebo for 28 consecutive days. Of note, the first 4 patients enrolled randomized in this study received 450 mg b.i.d. of Compound A or placebo, prior to an amendment reducing the dose and thereafter the dose was reduced to 300 mg b.i.d. of Compound A. The single-blind placebo-controlled follow-up period was 28 days. The follow-up period included a visit on Day 29 for key primary and secondary objective efficacy assessments, weekly follow-up contact via telephone, and an End-of-Study (EOS) visit on Day 56.\nSpontaneous sputum was collected from patients and used to quantify colony forming units (CFUs) as a potential efficacy marker. The collected sputum samples were cultured for the following specific bacteria: Haemophilus parainfluenza, Haemophilus influenza, Pseudomonas aeruginosa, Moraxella, and Streptococcus pneumonia. In the event of bacterial growth for one or more of the above five pathogens, then the test result was reported, including the quantitative growth. In order to be included in the sputum analysis, a patient must have provided a sufficient sputum sample at baseline and at least one other visit (Day 14, Day 29 or EOS).\nA decrease in airway bacterial colonization as detected in the sputum is considered improvement. In Table 4, the frequency (n, %) of patients was reported by treatment with Compound A and type of bacteria. Within each treatment group, the percentage was calculated as number of patients who were colonized with bacteria divided with total number of patients who produced a sputum sample at that time point."}, "[1]": {"experiment": "Pharmacokinetics of Compound A (half-life, trough/AUC relation)", "assay_type": "in vivo"}, "BCRP": {"target": "BCRP (Homo sapiens (Human), UniProt Q9UNQ0)", "sequence (Q9UNQ0 whole entry)": "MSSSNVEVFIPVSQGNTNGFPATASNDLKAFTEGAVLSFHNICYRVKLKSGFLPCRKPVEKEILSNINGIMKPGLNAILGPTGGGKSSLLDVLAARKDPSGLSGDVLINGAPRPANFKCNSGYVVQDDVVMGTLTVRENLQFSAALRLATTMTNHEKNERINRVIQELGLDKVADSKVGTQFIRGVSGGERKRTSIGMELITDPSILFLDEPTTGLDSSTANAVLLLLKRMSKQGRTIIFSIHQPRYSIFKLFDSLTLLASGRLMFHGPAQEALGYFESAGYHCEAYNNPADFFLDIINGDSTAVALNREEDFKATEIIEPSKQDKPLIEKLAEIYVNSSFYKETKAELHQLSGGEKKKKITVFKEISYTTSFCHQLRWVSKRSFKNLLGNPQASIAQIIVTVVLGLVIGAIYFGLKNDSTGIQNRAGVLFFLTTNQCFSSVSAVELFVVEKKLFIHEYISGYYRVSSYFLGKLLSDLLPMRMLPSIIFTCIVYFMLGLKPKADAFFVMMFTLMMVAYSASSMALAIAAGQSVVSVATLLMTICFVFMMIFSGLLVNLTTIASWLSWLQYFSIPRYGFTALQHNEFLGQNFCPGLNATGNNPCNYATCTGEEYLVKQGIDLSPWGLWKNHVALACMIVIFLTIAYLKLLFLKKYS", "experiment": "in vitro inhibition of BCRP", "assay_type": "in vitro ADME"}, "[2]": {"system": "Pseudomonas aeruginosa small colony variant", "assay_type": "in vivo", "settings": "Baseline", "procedure": "as §1\nSpontaneous sputum was collected from patients and used to quantify colony forming units (CFUs) as a potential efficacy marker. […] In the event of bacterial growth for one or more of the above five pathogens, then the test result was reported, including the quantitative growth. […]\nA decrease in airway bacterial colonization as detected in the sputum is considered improvement. […] Within each treatment group, the percentage was calculated as number of patients who were colonized with bacteria divided with total number of patients who produced a sputum sample at that time point."}, "OATP1B3": {"target": "OATP1B3 (Homo sapiens (Human), UniProt Q9NPD5)", "sequence (Q9NPD5 whole entry)": "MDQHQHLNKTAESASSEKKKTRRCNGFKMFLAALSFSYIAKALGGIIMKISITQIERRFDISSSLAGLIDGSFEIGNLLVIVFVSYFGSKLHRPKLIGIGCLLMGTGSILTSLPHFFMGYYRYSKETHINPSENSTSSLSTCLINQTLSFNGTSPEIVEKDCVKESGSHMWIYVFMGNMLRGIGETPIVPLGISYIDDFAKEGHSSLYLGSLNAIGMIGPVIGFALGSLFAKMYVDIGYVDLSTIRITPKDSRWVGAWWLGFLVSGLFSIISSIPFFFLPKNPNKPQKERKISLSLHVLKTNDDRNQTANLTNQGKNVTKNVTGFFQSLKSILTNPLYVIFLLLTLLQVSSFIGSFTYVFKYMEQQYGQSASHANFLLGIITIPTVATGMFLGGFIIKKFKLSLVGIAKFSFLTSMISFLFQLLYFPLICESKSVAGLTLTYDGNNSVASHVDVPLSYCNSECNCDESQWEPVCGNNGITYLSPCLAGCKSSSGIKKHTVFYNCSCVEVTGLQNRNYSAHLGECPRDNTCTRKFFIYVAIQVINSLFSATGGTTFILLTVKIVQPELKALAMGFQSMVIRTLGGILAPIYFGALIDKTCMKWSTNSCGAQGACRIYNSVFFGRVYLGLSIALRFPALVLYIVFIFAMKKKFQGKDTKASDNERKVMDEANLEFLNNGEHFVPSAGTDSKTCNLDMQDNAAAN", "experiment": "in vitro inhibition of OATP1B3", "assay_type": "in vitro ADME"}, "COPD patients": {"system": "COPD patients", "experiment": "Phase II study of Compound A in COPD patients: fibrinogen levels in blood", "assay_type": "in vivo, human", "parameters": "fibrinogen change from baseline, mean / fibrinogen change from baseline, minimum / fibrinogen change from baseline, median / fibrinogen change from baseline, maximum: unit not given here", "settings": "for fibrinogen change from baseline, maximum / fibrinogen change from baseline, mean / fibrinogen change from baseline, median / fibrinogen change from baseline, minimum: value in brackets", "procedure": "as §1\nBlood samples were collected from patients for the analysis of fibrinogen."}, "CYP2B6": {"system": "CYP2B6", "experiment": "Induction of CYP2B6", "assay_type": "in vitro ADME"}, "[3]": {"settings": "BAS (baseline) visit, 300 mg bid group"}, "[4]": {"settings": "SCR (screening) visit, 300 mg bid group"}},
  "data": [
    {"smiles": "COc1nc(C(=O)NC[C@](C)(O)C(F)(F)F)c(N)cc1C(F)(F)F", "note": "(single isomer, unassigned) [Example 5]", "values": [
      {"measurement": "patients colonized, n (%)", "setting": "Haemophilus influenzae; Baseline", "value": "25 (55.6) n (%)"},
      {"measurement": "patients colonized, n (%)", "setting": "Haemophilus influenzae; D14", "value": "20 (46.5) n (%)"},
      {"measurement": "patients colonized, n (%)", "setting": "Haemophilus influenzae; D29", "value": "22 (52.4) n (%)"},
      {"measurement": "patients colonized, n (%)", "setting": "Haemophilus influenzae; EOS", "value": "16 (38.1) n (%)"},
      {"measurement": "half-life", "setting": "[1]; in vivo", "value": "10 to 16", "unit": "h"},
      {"measurement": "trough concentration (Cmin,ss) corresponding to AUC0-24 h,ss of 91,700 ng*h/ml", "setting": "[1]; regression of Cmin,ss against AUC0-24 h,ss", "value": 3000, "unit": "ng/mL"},
      {"measurement": "inhibition of BCRP", "setting": "BCRP", "value": "Weak in vitro inhibition"},
      {"measurement": "patients colonized, n (%)", "setting": "[2]", "value": "1 (2.2) n (%)"},
      {"measurement": "inhibition of OATP1B3", "setting": "OATP1B3", "value": "Weak in vitro inhibition"},
      {"measurement": "fibrinogen level, maximum", "setting": "COPD patients; [3]", "value": 4.9, "unit": "g/L"},
      {"measurement": "fibrinogen level, mean", "setting": "COPD patients; [3]", "value": 3.28, "unit": "g/L"},
      {"measurement": "fibrinogen level, median", "setting": "COPD patients; [3]", "value": 3.16, "unit": "g/L"},
      {"measurement": "fibrinogen level, minimum", "setting": "COPD patients; [3]", "value": 2, "unit": "g/L"},
      {"measurement": "fibrinogen level, maximum", "setting": "COPD patients; D14, 300 mg bid", "value": 4.4, "unit": "g/L"},
      {"measurement": "fibrinogen level, mean", "setting": "COPD patients; D14, 300 mg bid", "value": 3.1, "unit": "g/L"},
      {"measurement": "fibrinogen level, median", "setting": "COPD patients; D14, 300 mg bid", "value": 3.03, "unit": "g/L"},
      {"measurement": "fibrinogen level, minimum", "setting": "COPD patients; D14, 300 mg bid", "value": 1.6, "unit": "g/L"},
      {"measurement": "fibrinogen change from baseline, maximum", "setting": "COPD patients; D14, 300 mg bid", "value": 1.7},
      {"measurement": "fibrinogen change from baseline, mean", "setting": "COPD patients; D14, 300 mg bid", "value": "−0.18"},
      {"measurement": "fibrinogen change from baseline, median", "setting": "COPD patients; D14, 300 mg bid", "value": "−0.20"},
      {"measurement": "fibrinogen change from baseline, minimum", "setting": "COPD patients; D14, 300 mg bid", "value": "−1.7"},
      {"measurement": "fibrinogen level, maximum", "setting": "COPD patients; D29, 300 mg bid", "value": 4.4, "unit": "g/L"},
      {"measurement": "fibrinogen level, mean", "setting": "COPD patients; D29, 300 mg bid", "value": 3.02, "unit": "g/L"},
      {"measurement": "fibrinogen level, median", "setting": "COPD patients; D29, 300 mg bid", "value": 2.98, "unit": "g/L"},
      {"measurement": "fibrinogen level, minimum", "setting": "COPD patients; D29, 300 mg bid", "value": 1.6, "unit": "g/L"},
      {"measurement": "fibrinogen change from baseline, maximum", "setting": "COPD patients; D29, 300 mg bid", "value": 1.3},
      {"measurement": "fibrinogen change from baseline, mean", "setting": "COPD patients; D29, 300 mg bid", "value": "−0.24"},
      {"measurement": "fibrinogen change from baseline, median", "setting": "COPD patients; D29, 300 mg bid", "value": "−0.17"},
      {"measurement": "fibrinogen change from baseline, minimum", "setting": "COPD patients; D29, 300 mg bid", "value": "−1.8"},
      {"measurement": "mean change from baseline over time for fibrinogen (FIG. 1)", "setting": "COPD patients; Day 14 and 29 during treatment period", "value": "decrease of fibrinogen levels"},
      {"measurement": "estimated difference (Compound A to placebo) in mean change from baseline fibrinogen", "setting": "COPD patients; Day 29, 300 mg bid for 28 days, 90% CI −0.65, −0.14, p-value=0.006", "value": -0.40, "unit": "g/L"},
      {"measurement": "Fibrinogen mean improvement over placebo", "setting": "COPD patients; Day 29, p-value=0.006", "value": 40, "unit": "mg/dL"},
      {"measurement": "fibrinogen level, mean", "setting": "COPD patients; EOS (Day 56, 28 days after last dose), 300 mg bid", "value": 3.24, "unit": "g/L"},
      {"measurement": "fibrinogen level, maximum", "setting": "COPD patients; EOS, 300 mg bid", "value": 6.6, "unit": "g/L"},
      {"measurement": "fibrinogen level, median", "setting": "COPD patients; EOS, 300 mg bid", "value": 3.16, "unit": "g/L"},
      {"measurement": "fibrinogen level, minimum", "setting": "COPD patients; EOS, 300 mg bid", "value": 2, "unit": "g/L"},
      {"measurement": "fibrinogen change from baseline, maximum", "setting": "COPD patients; EOS, 300 mg bid", "value": 3.0},
      {"measurement": "fibrinogen change from baseline, mean", "setting": "COPD patients; EOS, 300 mg bid", "value": "−0.03"},
      {"measurement": "fibrinogen change from baseline, median", "setting": "COPD patients; EOS, 300 mg bid", "value": "−0.11"},
      {"measurement": "fibrinogen change from baseline, minimum", "setting": "COPD patients; EOS, 300 mg bid", "value": "−1.7"},
      {"measurement": "fibrinogen level, maximum", "setting": "COPD patients; [4]", "value": 4.9, "unit": "g/L"},
      {"measurement": "fibrinogen level, mean", "setting": "COPD patients; [4]", "value": 3.03, "unit": "g/L"},
      {"measurement": "fibrinogen level, median", "setting": "COPD patients; [4]", "value": 3, "unit": "g/L"},
      {"measurement": "fibrinogen level, minimum", "setting": "COPD patients; [4]", "value": 1.1, "unit": "g/L"},
      {"measurement": "effect on co-medications mainly metabolized by CYP2B6", "setting": "CYP2B6", "value": "induce"}
    ]}
  ]
}
